Assay results taken from patent US20140357688A1, “METHOD FOR INHIBITING EZH2 EXPRESSION IN BREAST CANCER CELLS” (Yung Shin Pharm. Ind. Co., Ltd., priority 2013, published 2014).

Key:
[1] = In vivo pharmacokinetic analysis
MDA-MB-468 xenograft = experiment: MDA-MB-468 breast cancer xenograft animal model; assay type: in vivo, Nu/Nu mice
Procedure: MDA-MB-468 cells were used to inoculate Nu/Nu mice. (A, left) Tumor bearing mice were given vehicle (10 μl DMSO, CTL) or YC-1 (30 and 60 mg/kg/day) by ip treatment. (B, right) Tumor bearing mice were given vehicle (normal saline, CTL) or YC-1-succinate (YC-1-S; 20, 40, and 80 mg/kg/day) by oral administration. During treatment period, tumor volume and body weights of mice were measured once per 3 days. Data are expressed as mean of tumor volume (mm^3)±S.E.M. from 6 mice (YC-1 treatment) or 10 mice (YC-1-S treatment). Tumor weights (B) and body weights of mice (C) in control and YC-1/YC-1-S-treated groups were recorded.
Nu/Nu female mice (four weeks old) were from National Laboratory Animal Center, Taipei, Taiwan. Mice were maintained under procedures and guidelines from the Institutional Animal Care and Use of the National Health Research Institutes. MDA-MB-468 breast cancer cells (5×10^6 cells per mouse) were suspended in 0.1 ml of Matrigel solution (50%, v/v, Matrigel in 1×PBS) and inoculated into the mammary fat pads of nude mice. When the tumor masses reached to 100 mm^3, the tumor bearing mice were randomly divided into different groups for different dosage of YC-1 treatments. The mice were given by intraperitoneal injection with YC-1 or oral administration of YC-1-succinate. Tumor size and body weights of mice were measured once per 3 days and tumor volume (mm^3) was calculated as the equation: length×[…]. At the end of experiments, mice were sacrificed and tumor nodules were dissected and weighted. Tumor tissues were subjected to western blot analysis.

MDA-MB-468 = experiment: MTT cell viability assay; assay type: cell-based, human; conditions: inhibitor pretreatment, then 3 μM YC-1 for 6 h
Procedure: (A) Cells were treated with indicated concentration of YC-1 for 6, 24, and 48 h. Cell viability was determined by MTT method. (B) MDA-MB-468 cells were treated with 3 μM YC-1 for 0, 6, and 12 h, and then stained with fluorescence diacetate (FDA) and propidium iodide (PI). Cell morphology was assessed by fluorescence microscopy with magnification ×20 (upper 3 rows) or ×40 (lowest row). (C) MDA-MB-468 cells were treated with 3 μM YC-1 for 24 h, cells were lysed and subjected to western blot analysis described in Materials and Methods. β-actin is a loading control. Blots were representative of results from three independent experiments. (D) Cells were treated with vehicle (DMSO, as control) or 3 μM YC-1 for 6 h. The cell cycles were analyzed by flow cytometry. (E) Cells were treated with indicated concentration of YC-1 and then performed with clonogenic assay.
Human breast cancer cells, MDA-MB-468, MDA-MB-157, MDA-MB-231, MDA-MB-453, and Hs578T, and immortalized mammary epithelial cell lines, 184A1 and MCF-10A, were obtained from American Type Culture Collection (Manassas, Va., USA). MDA-MB-468, MDA-MB-157, MDA-MB-231, and MDA-MB-453 were cultured in DMEM/F12 medium supplemented with 10% FBS, 100 U/ml penicillin, and 100 μg/ml streptomycin. Hs578T was cultured in RPMI 1640 medium containing 10% FBS, 2 mM L-glutamine, 100 U/ml penicillin, and 100 μg/ml streptomycin. 184A1 and MCF-10A were cultured in DMEM/F12 medium supplemented with 5% horse serum, 0.5 μg/ml hydrocortisone, 10 μg/ml insulin, 20 ng/ml epidermal growth factor, 0.1 μg/ml cholera enterotoxin, 2 mM L-glutamine, 100 U/ml penicillin, and 100 μg/ml streptomycin. All cells were maintained in a humidified incubator containing 5% CO2. For hypoxia treatment, cells were incubated in a chamber flushed with 1% 02, 5% CO2, and 94% N2 at 37° C.
Cell viability was measured by 3-(4,5-Dimethyl-2-thiazolyl)2,5-diphenyl-2H-tetrazolium bromide (MTT) assay.

EZH2 [2] = experiment: EZH2 ubiquitination assay; assay type: cell-based, human; conditions: inhibitor pretreatment, then 3 μM YC-1
Procedure: (A) Cells were pretreated with cyclohexamide (30 μM) for 1 h and followed by induction with vehicle (DMSO) or YC-1 (3 μM) for indicated time. Cells were harvested for detection of protein expression. (B)(C) Cells were incubated with 3 μM YC-1 for 6 h in the presence of vehicle, 3 μM MG-132 or 30 μM NH4Cl. Cells were harvested for detection of protein expression (B) or cell viability assay (C). The levels of protein expression were quantitated and shown under blots. (D) After treatment of 3 μM YC-1 for indicated time, cells were harvested and lysed for immunoprecipitation and western blot analysis described in Materials and Methods.
Cells were lysed with MLB buffer (25 mM HEPES, pH 7.5, 150 mM NaCl, 1% Igepal CA-630, 10 mM MgCl2, 1 mM EDTA, 2% glycerol, 1 mM Na3VO4, 1 mM NaF, 1 mM PMSF, 10 μg/ml of leupeptin, aprotinin, and pepstatin A). After sonication, cell lysates were centrifugated at 12,000×g for 10 min at 4° C. Supernatants were incubated with anti-EZH2 antibody (BD Biosciences) and protein A Sepharose beads (GE Health Care) overnight at 4° C. After washing with MLB buffer, precipitated proteins were boiled in 1× Laemmli sample buffer and then separated with SDS-PAGE. The ubiquitination levels of EZH2 were recognized by using anti-Ubiquitn monoclonal antibody.

ERK = experiment: Western blot of ERK phosphorylation in MDA-MB-468 cells; assay type: cell-based, human; conditions: 3 μM YC-1 for 6 h in the presence of inhibitor
Procedure: (A) Cells were pretreated with KT5720 (3 μM), KT5823 (3 μM), NS2028 (30 μM), or ODQ (30 μM) and then stimulated with YC-1 (3 μM) for 6 h. Cells were collected for measurement of protein expression (left) or cell viability (middle). After 3 days of PKA knockdown, cells were induced with 3 μM YC-1 for 4 h. Cells were harvested and analyzed using western blotting (right). The levels of protein expression were quantitated and shown under blots. […] Cells were collected and analyzed protein expression (left) and cells viability (middle). p44/42 MAPK knockdown cells were treated with 3 μM YC-1 for 4 h and then detected protein expression (left). (C) Cells were treated with 3 μM YC-1 for indicated time. Cells were harvested for detection of protein phosphorylated activation. […] Six hours later, cells were harvested for EZH2 ubiquitination assay. (E) Cells were induced by 3 μM YC-1 for 6 h in the presence of PD98059 or KT5720. Cells were collected for the determination of ERK phosphorylation. Cells were lysed in PBS containing proteinase inhibitor and phosphatase inhibitors and sonication. Protein concentration was measured using the Bio-Rad protein assay kit (Bio-Rad Laboratories, Hercules, Calif., USA). […] The band intensities were analyzed and quantified by the Multi Gauge software (Fuji Photo Film).

EZH2 [3] = experiment: Western blot of EZH2 protein expression in MDA-MB-468 cells; assay type: cell-based, human; conditions: inhibitor pretreatment, then 3 μM YC-1 for 6 h
Procedure: Cells were harvested and performed with western blotting analysis. […] The levels of protein expression were quantitated and shown under blots. (C) Cells were transfected with EZH2 shRNA for 0, 1, 2, 3, and 4 days and collected for determination of cell viability (left) and protein expression (right). (D)(E) After 4 days of EZH2 knockdown, cells were incubated with 3 μM YC-1 for 4 h and detected cell viability (D) and protein contents (E). (F) Tumor specimens were isolated and protein was extracted for western blot analysis.
Cells were lysed in PBS containing proteinase inhibitor and phosphatase inhibitors and sonication. Protein concentration was measured using the Bio-Rad protein assay kit (Bio-Rad Laboratories, Hercules, Calif., USA). Lysate protein was separated by electrophoresis of SDS-PAGE and transferred to Immobilon P membrane (EMD Millipore). The membranes were incubated with appropriate primary antibodies and horseradish peroxidase-conjugated secondary antibodies (EMD Millipore). The signaling was visualized using Chemiluminescence substrate kit (EMD Millipore) and collected by the Luminesence image analyzer, LAS4000 (Fuji Photo Film Co., Tokyo, Japan). The band intensities were analyzed and quantified by the Multi Gauge software (Fuji Photo Film).

Compound: O=C(O)CCC(=O)OCc1ccc(-c2nn(Cc3ccccc3)c3ccccc23)o1 [YC-1-succinate, succinic acid mono-[5-(1-benzyl-1H-indazol-3-yl)-furan-2-ylmethyl]ester]
- conversion of prodrug into active form [1]: quickly converted into its active form
- tumor growth (MDA-MB-468 xenograft; 20, 40, and 80 mg/kg orally): dose-dependent inhibition
- body weights of mice (MDA-MB-468 xenograft; 20, 40, and 80 mg/kg/day oral): not affected
- tumor weight (MDA-MB-468 xenograft; 20, 40, and 80 mg/kg/day oral): dose-dependently reduced tumor weight

Compound: CCCCCCOC(=O)[C@]1(O)C[C@@H]2O[C@@]1(C)n1c3ccccc3c3c4c(c5c6ccccc6n2c5c31)C(=O)NC4 [KT5720]
- effect of inhibitor on YC-1-induced inhibition of cell viability (MDA-MB-468): significantly reversed
- effect of inhibitor on YC-1-induced EZH2 ubiquitination (EZH2 [2]): could be blocked
- effect of inhibitor on ERK phosphorylation (ERK): did not affect ERK phosphorylation
- effect of inhibitor on YC-1-induced EZH2 inhibition (EZH2 [3]): significantly reversed
